The values below come from patent US11691992B2 (Anacor Pharmaceuticals, Inc., priority 2017, dated 2023).

Like-named read-outs stand apart in the source and are kept apart here.

Common to all, as to format: cell-based
Experiment [1] concerns L. infantum MHOM/MA(BE)/67 amastigotes in primary peritoneal mouse macrophages. Nature of the experiment: Leishmania infantum intracellular amastigote assay in mouse macrophages. The following applies: Macrophage, 120 h. In short, it runs like this: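 Amastigotes harvested from infected hamster spleen infected primary peritoneal mouse macrophages (5×10^5 amastigotes/well, 2 h, 37 °C). Compounds then present 5 d at 37 °C, 5% CO2. Parasite burden counted by microscopy after Giemsa staining, as % of untreated controls; IC50 from sigmoidal variable-slope fit.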

In experiment [2] the test system is Trypanosoma brucei rhodesiense STIB 900 strain. As to the kind of experiment: Trypanosoma brucei rhodesiense STIB 900 screening assay. The note with it: 72 h. In a few lines:
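Bloodstream forms of T. b. rhodesiense STIB 900 (10^4 per well) cultured with seven 3-fold drug dilutions (90 to 0.123 μg/mL) in MEM with 15% horse serum, 72 h, 37 °C, 5% CO2. Alamar Blue added for 2-4 h more; fluorescence read at ex 536/em 588 nm for IC50.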

Experiment [3] relates to T. cruzi Tulahuen strain C2C4 containing the β-galactosidase (Lac Z) gene in rat skeletal myoblasts (L-6 cells). Nature of the experiment: Trypanosoma cruzi C2C4 screening assay. How it is done:
Example 113: Trypanosoma cruzi C2C4 Screening Assay Procedure
Rat skeletal myoblasts (L-6 cells) were seeded in 96-well microtiter plates at 2×10^3 cells/well in 100 μL RPMI 1640 medium with 10% FBS and 2 mM L-glutamine. After 24 h the medium was removed and replaced by 100 μL per well containing 5×10^3 trypomastigote forms of T. cruzi Tulahuen strain C2C4 containing the β-galactosidase (Lac Z) gene (Buckner, et al., Antimicrobial Agents and Chemotherapy, 40: 2592-2597 (1996)). After 48 h the medium was removed from the wells and replaced by 100 μL fresh medium with or without a serial drug dilution of the seven 3-fold dilution steps covering a range from 90 to 0.123 μg/mL. After 96 h of incubation the plates were inspected under an inverted microscope to assure growth of the controls and sterility. The substrate (50 μL) chlorophenol red-β-D-galactopyranoside (CPRG, Roche Diagnostics, Ltd) in 0.25% Nonidet P-40/PBS was added to all wells and a color reaction developed within 2-6 h which was read photometrically at 540 nm. Data were transferred into the graphic program Softmax Pro (Molecular Devices), which calculated IC50 values.

Experiment [4] has as its system bloodstream forms of T. b. rhodesiense STIB 900. Nature of the experiment: T. brucei rhodesiense STIB 900 growth inhibition assay. The following applies: Trypanosoma brucei, 72 h. In short, it runs like this:
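Bloodstream-form STIB 900 (10^4/well) were cultured in supplemented MEM with 15% horse serum and compound (90 to 0.123 μg/ml, 3-fold steps) for 72 h at 37 °C, 5% CO2. Viability was read by Alamar Blue fluorescence (ex 536/em 588 nm) after a further 2-4 h.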

The mark [5] stands for this setting: amastigotes in primary peritoneal mouse macrophages, 5 d, Giemsa staining, read-out: Inhibition of Organism Growth in Leishmania infantum MHOM/MA/BE/67, 5 d.
The mark [6] stands for this setting: STIB 900 bloodstream forms, Alamar Blue, protocol of Example 114, read-out: Swiss TPH T b rhodesiense IC50.
[7] abbreviates: L6, in L-6 cells, 96 h, CPRG, read-out: SCYNEXIS IC50: I Org. Growth T. cruzi Tulahuen C2C4 Lac Z, 4 d.
[8] abbreviates: bloodstream forms, Alamar Blue, protocol of Example 110, read-out: IC50: I Org. Growth T. brucei rhodesiense STIB 900, 3 d.
The mark [9] stands for this setting: read-out: IC50: I Org. Growth T. brucei rhodesiense STIB 900, 3 d [uM].
Where [10] appears, read: read-out: Inhibition of Organism Growth in Leishmania infantum MHOM/MA/BE/67, 5 d [uM].
The mark [11] stands for this setting: read-out: Swiss TPH T b rhodesiense IC50.
Setting [12] is: L6, 96 h, read-out: SCYNEXIS IC50: I Org. Growth T. cruzi Tulahuen C2C4 Lac Z, 4 d [uM].

As to `O=C(Nc1ccc2c(c1)B(O)OC2)c1cn(-c2ccc(F)cc2)nn1` [Example 60, 1-(4-Fluorophenyl)-N-(1-hydroxy-1,3-dihydrobenzo[c][1,2]oxaborol-6-yl)-1H-1,2,3-triazole-4-carboxamide], the IC50 in experiment [1] (setting [5]) is less than 3 µM; in experiment [2] (setting [6]), less than 100 nM; in experiment [3] (setting [7]), 0.06 to 0.1 µM.
On to `O=C(Nc1ccc2c(c1)B(O)OC2)c1cn(-c2ccccn2)nn1` [Example 61, N-(1-hydroxy-1,3-dihydrobenzo[c][1,2]oxaborol-6-yl)-1-(pyridin-2-yl)-1H-1,2,3-triazole-4-carboxamide], for which the IC50 was less than 0.1 µM in experiment [4] (setting [8]), less than 3 µM in experiment [1] (setting [5]), 100 to 250 nM in experiment [2] (setting [6]) and less than 0.06 µM in experiment [3] (setting [7]).
As for `O=C(Nc1ccc2c(c1)B(O)OC2)c1nnn(-c2ccccc2F)c1C(F)(F)F` [Example 67, 1-(2-Fluorophenyl)-N-(1-hydroxy-1,3-dihydrobenzo[c][1,2]oxaborol-6-yl)-5-(trifluoromethyl)-1H-1,2,3-triazole-4-carboxamide], the IC50 in experiment [4] (setting [8]) is 0.1 to 0.3 µM; in experiment [1] (setting [5]) it was 20 to 100 µM; in experiment [2] (setting [6]), 100 to 250 nM.
With `O=C(Nc1ccc2c(c1)B(O)OC2)c1nnn(-c2ccccc2)c1C(F)(F)F` [Example 68, N-(1-hydroxy-1,3-dihydrobenzo[c][1,2]oxaborol-6-yl)-1-phenyl-5-(trifluoromethyl)-1H-1,2,3-triazole-4-carboxamide], the IC50 was less than 0.1 µM in experiment [4] (setting [9]), less than 3 µM in experiment [1] (setting [10]), less than 100 nM in experiment [2] (setting [11]) and 0.11 to 1 µM in experiment [3] (setting [12]).
For `O=C(Nc1ccc2c(c1)B(O)OC2)c1nnn(-c2cccc(F)c2)c1C(F)(F)F` [Example 69, 1-(3-Fluorophenyl)-N-(1-hydroxy-1,3-dihydrobenzo[c][1,2]oxaborol-6-yl)-5-(trifluoromethyl)-1H-1,2,3-triazole-4-carboxamide], the IC50 was 0.1 to 0.3 µM in experiment [4] (setting [8]), less than 3 µM in experiment [1] (setting [5]) and 100 to 250 nM in experiment [2] (setting [6]).
The like results for `O=C(Nc1ccc2c(c1)B(O)OC2)c1nnn(-c2ccc(F)cc2)c1C(F)(F)F` [Example 70, 1-(4-Fluorophenyl)-N-(1-hydroxy-1,3-dihydrobenzo[c][1,2]oxaborol-6-yl)-5-(trifluoromethyl)-1H-1,2,3-triazole-4-carboxamide] were, in that order, 0.31 to 10 µM, less than 3 µM and 100 to 250 nM.
`O=C(Nc1ccc2c(c1)B(O)OC2)c1nnn(-c2cccnc2)c1C(F)(F)F` [Example 71, N-(1-hydroxy-1,3-dihydrobenzo[c][1,2]oxaborol-6-yl)-1-(pyridin-3-yl)-5-(trifluoromethyl)-1H-1,2,3-triazole-4-carboxamide]: the IC50 is 0.1 to 0.3 µM in experiment [4] (setting [8]), less than 3 µM in experiment [1] (setting [5]) and 100 to 250 nM in experiment [2] (setting [6]).
Consider `Cc1c(C(=O)Nc2ccc3c(c2)B(O)OC3)nnn1-c1ccccn1` [Example 84, N-(1-hydroxy-1,3-dihydrobenzo[c][1,2]oxaborol-6-yl)-5-methyl-1-(pyridin-2-yl)-1H-1,2,3-triazole-4-carboxamide], for which the results for the IC50 in experiment [4] (setting [8]), in experiment [1] (setting [5]) and in experiment [3] (setting [7]) were less than 0.1 µM, less than 3 µM and less than 0.06 µM, respectively.
With `Cc1c(C(=O)Nc2ccc3c(c2)B(O)OC3)nnn1-c1ccccc1` [Example 89, A-(1-hydroxy-1,3-dihydrobenzo[c][1,2]oxaborol-6-yl)-5-methyl-1-phenyl-1H-1,2,3-triazole-4-carboxamide], the IC50 is less than 0.1 µM in experiment [4] (setting [9]), 20 to 100 µM in experiment [1] (setting [10]), less than 100 nM in experiment [2] (setting [11]) and less than 0.06 µM in experiment [3] (setting [12]).
`Cc1c(C(=O)Nc2ccc3c(c2)B(O)OC3)nnn1-c1cccnc1` [Example 93, N-(1-hydroxy-1,3-dihydrobenzo[c][1,2]oxaborol-6-yl)-5-methyl-1-(pyridin-3-yl)-1H-1,2,3-triazole-4-carboxamide]: the IC50 in experiment [4] (setting [8]) lay in the range of 0.31 to 10 µM; in experiment [1] (setting [5]) it was 20 to 100 µM; in experiment [2] (setting [6]), 260 to 2000 nM.
